Laboratory results: patent publication US20130023001A1, “USE OF A SUBSTRATE IN A METHOD FOR MEASURING THE ACTIVITY OF PROTEOLYTIC ENZYMES” (priority 2011, published 2013)

Columns and labels:
Type in all cases: biochemical
[1] = tested on: low-molecular-weight heparin, Fragmine®; experiment: evaluation method for heparin neutralization by anti-Xa activity (chromogenic para-nitroaniline substrate) with low-molecular-weight heparin
Text: (§1) Before referring to the diagrams of the figures, the evaluation method used to quantify the neutralization of the glycosaminoglycans in a blood sample, and in particular a plasma, will be described. This method makes it possible to use both unfractionated heparins and low-molecular-weight heparins. In addition, the method endeavors to test the activity of factor Xa, located at the crossroads of two enzymatic cascades resulting in the formation of thrombin. Moreover, antithrombin, which is a natural inhibitor of thrombin generation, controls the reaction. As soon as it appears, factor Xa couples to its natural substrate, prothrombin, so as to form thrombin. The heparin contained in the sample forms, itself, a complex with antithrombin, which complex promotes the inhibition of factor Xa.
(§2) Thus, a chromogenic substrate based on para-nitroaniline, which factor Xa hydrolyzes, is used and the release of the para-nitroaniline, which can be measured optically, is then inversely proportional to the concentration of heparin present in the medium. A measurement of the anti-Xa activity is thus deduced therefrom.
(§3) The percentage neutralization by the synthetic polymer is determined as being the ratio of the difference in the variation in anti-Xa activity in the medium containing the physiological saline and in the medium containing the neutralizing agent, between two heparin concentrations, and only the variation in activity in the medium containing the physiological saline, between the same two heparin concentrations, this ratio being multiplied by 100 in order to obtain the result as percentage neutralization.
(§4) The percentage neutralization can also be written more compactly: 100×(1−ΔA1/ΔA2), wherein ΔA1 corresponds to the variation in activity in the presence of neutralizing compound and ΔA2 to the variation in the presence of physiological saline. Thus, the parallel measurement of the variation in the presence of physiological saline makes it possible to establish the reference in each series of measurements.
Still in this first part of the description, the abovementioned evaluation method was implemented with a low-molecular-weight heparin, Fragmine®.

[2] = tested on: unfractionated heparin, Calciparine®; experiment: evaluation method for heparin neutralization by anti-Xa activity (chromogenic para-nitroaniline substrate) with unfractionated heparin; settings: for percentage neutralization of Calciparine®, 100×(1−ΔA1/ΔA2): heparin concentrations between 0 and 1.67 IU/ml
Text: as §1, §2
In this first example, the heparin used is an unfractionated calcium heparin sold under the brand name: “Calciparine®”. According to the evaluation method, the anti-Xa activity is recorded and transferred onto the y-axis, as a function of the heparin concentration of the medium. The heparin concentrations vary between 0 and 1.67 IU/ml and are relatively close to the therapeutic concentrations. The first inclined curve 10 corresponds to a first series of measurements wherein physiological saline is added to the blood sample in addition to the para-nitroaniline-based substrate, while the second inclined curve 12 corresponds to a second series of measurements wherein a neutralizing synthetic polymer, polybrene, intended to neutralize the anticoagulant effects of the heparin, is added to the blood sample. This compound is well known for its effects on heparin and is usually employed in methods for measuring the activity of proteolytic enzymes in order to actually dispense with the anticoagulant effect of heparin.
as §3, §4

[3] = biological target: T1, thrombin (Homo sapiens, UniProt P00734); experiment: measuring method: thrombin generation fluorescent signal in a blood sample containing heparin
T1 construct: from tissue; host or cells: blood sample (plasma) containing heparin; thrombin generation triggered with tissue factor and calcium
Protocol: According to one embodiment of the measuring method, the enzymatic activity monitored is that of thrombin generation. The principle lies in the monitoring of the measurement of a fluorescent signal after the enzyme substrate has been brought into contact with a blood sample containing heparin, and the reaction conditions allow the thrombin to cleave the substrate between the peptide part and the fluorophore, in this case rhodamine110.
In order to implement the method, a blood sample of 40 μL containing heparin is first of all introduced into a microcuvette. 10 μL of the enzyme substrate in accordance with the invention mixed with an initiating reagent, and 10 μL of activating reagent are added thereto. The initiating reagent is […] and it has a concentration of 16.7×10^−3 mol.L^−1. The activating reagent is tissue factor at a concentration of 10^−12 mol.L^−1.
Next, an excitation signal having a predetermined wavelength is emitted through the microcuvette and the response to the excitation signal is recorded optically over time. Thus, the greater the amount of thrombin generated, the greater the signal response.
According to one particular embodiment, the enzyme substrate chosen is that corresponding to the embodiment variant V(3) of the first part of the detailed description, and of synthetic formula (R^2−GGR)2-Rhod110. […]

Substance | percentage neutralization of Fragmine® ([1]; heparin 0.42 IU/ml) [%] | percentage neutralization of Fragmine® ([1]; heparin 0.83 IU/ml) [%] | percentage neutralization of Fragmine® ([1]; heparin 1.25 IU/ml) [%] | percentage neutralization of Fragmine® ([1]; heparin 1.67 IU/ml) [%] | percentage neutralization of Calciparine®, 100×(1−ΔA1/ΔA2) [2] [%] | effect of heparin on the thrombin activity measurement (signal curve with versus without heparin) ([3]; unfractionated heparin 1.5 IU/ml, FIG. 5) | percentage neutralization of Calciparine® ([2]; heparin 0.42 IU/ml) [%] | percentage neutralization of Calciparine® ([2]; heparin 0.83 IU/ml) [%] | percentage neutralization of Calciparine® ([2]; heparin 1.25 IU/ml) [%] | percentage neutralization of Calciparine® ([2]; heparin 1.67 IU/ml) [%] | strength of the thrombin activity signal relative to the series of measurements without heparin ([3]; heparin 1.5 IU/ml, after 30 minutes, FIG. 7) [%]
(EtM-VR)2-Rhod110 [V(2)] | 71 | 78 | 79 | 78 | ~100 |  |  |  |  |  | 
(R^2GGR)2-Rhod110 [V(3)] | 88 | 90 | 91 | 91 |  | very small effect | 90 | 93 | 94 | 96 | 
EtM-VR-Rhod110-Ac [reference compound] |  |  |  |  |  |  |  |  |  |  | ~3
R^2GGR-Rhod110-Benzoic [V(5)] | 77 | 75 | 75 | 74 |  |  | 100 | 97 | 98 | 98 | 
R^2GGR-Rhod110-H [V(4)] | 83 | 83 | 72 | 64 |  |  | 96 | 90 | 89 | 80 | 
R^2GGR-Rhod110-R [V(1)] | 64 | 65 | 64 | 72 | ~100 |  |  |  |  |  | 
